Data set [1] concerns the target guinea pig pancreatic acini. The data set is described as follows: Pancreatic amylase liberation test. The class given is cell-based. To be noted: acini incubated 30 minutes at 37° C.; mean of three experiments in triplicate; read-out: Amylase secretion from guinea pig pancreatic acini, Agonist activity EC50. On the procedure:
Amylase secretion is measured after incubation of pancreatic acini for 30 minutes at 37° C. in the presence of the products under study, according to the experimental protocol described by Peikin et al., Am. J. Physiol., 235 (6), E 743-E 749, (1978). Amylase activity is determined using Phadebas reagent (Pharmacia), according to the method described by Ceska et al., Experientia, 25, 555 (1969). The values indicated in this table represent the mean of three separate experiments, each carried out in triplicate.

The test system of another data set is guinea pig ileum. The data set is described as follows: Contraction-producing activity on guinea pig ileum. As to conditions: isolated ileum strips, Tyrode's solution, 37° C.; mean ± s.e.m. of three experiments; read-out: Contraction-producing activity on guinea pig ileum, Agonist activity EC50. On the procedure: This test is carried out according to the method described by Hutchinson et al., Eur. J. Pharmacol., 69, 87 (1981). Strips from the terminal portion of the guinea pig ileum are rapidly sampled and fixed in the tank of an isometric gauge containing 25 cm^3 of Tyrode's solution. The solution is maintained at 37° C. while passing through it, bubble by bubble, a gas composed of 95% oxygen and 5% CO2. The compounds under study are tested in the conditions described by Ruiz-Gayo et al., Peptides, 6, 415, (1985).
The values indicated in this table represent the mean (± s.e.m.) of three separate experiments.

A short description of data set [2]: Enzymatic stability in crude rat brain membranes. To be noted: enzymatic degradation in crude rat brain membranes; read-out: 1/2 life time. The class given is in vitro ADME. On the procedure:
The resistance of these analogs to enzymatic degradation was tested in crude rat brain membranes which contain at the same time aminopeptidasic, thiolproteasic and encephalinasic activity [Matsas et al. Febs. Lett. 175, 124 (1984); McDermott et al. Neurochem. Int. 5, 641 (1983)]. These compounds were tested according to the protocol previously described by Durieux et al. Neuropeptides 7, 1, (1986).

*1 amine or outer side, *2 acyl side, *3 side chain or, on linkers, in order; H or OH if unused. Where a SMILES comes first, the peptide text is derived from it. [ ]: non-standard residue; d: D form. The star is where a group is joined. X1 = CCCC[C@@H](NC(=O)CC(=O)*)NC(=O)[C@H](Cc1ccc(CS(=O)(=O)O)cc1)NC(C)=O; Phe(4-CH2SO3H) = N[C@@H](Cc1ccc(CS(=O)(=O)O)cc1)C(=O)O; X2 = O=C([C@@H](Cc1ccc(CS(=O)(=O)O)cc1)N[*:1])[*:2]; sY = N[C@@H](Cc1ccc(OS(=O)(=O)O)cc1)C(=O)O; NMeNle = CCCC[C@H](NC)C(=O)O; Nle = CCCC[C@H](N)C(=O)O; Boc = CC(C)(C)OC(=O)*

Six compounds from US5190921A, “Amino acids and peptides having a modified tyrosine residue, their preparation and their application as medicaments” (Institut National de la Sante et de la Recherche Medicale …, priority 1988, dated 1993) can be followed below.

For `CCCC[C@H](NC(=O)[C@H](Cc1c[nH]c2ccccc12)NC(=O)CNC(=O)[C@H](CCCC)NC(=O)[C@@H](Cc1ccc(CS(=O)(=O)O)cc1)NC(C)=O)C(=O)N[C@@H](CC(=O)O)C(=O)N[C@@H](Cc1ccccc1)C(N)=O` [Example 14, Ac-D-Phe(p-CH2 SO3 Na)-NLe-Gly-Trp-NLe-Asp-PheNH2] (Ac-[X2][Nle]GW[Nle]DF-NH2), the EC50 (in general, the concentration giving half of the maximal effect) in data set [1] came to 1.6 nM; with guinea pig ileum it was 18 nM.

As to `CCCC[C@@H](NC(=O)CC(=O)N[C@@H](Cc1c[nH]c2ccccc12)C(=O)N(C)[C@@H](CCCC)C(=O)N[C@@H](CC(=O)O)C(=O)N[C@@H](Cc1ccccc1)C(N)=O)NC(=O)[C@H](Cc1ccc(CS(=O)(=O)O)cc1)NC(C)=O` [Example 18, Ac-L-Phe(p-CH2 SO3 Na)-gNle-mGly-Trp-(N-Me)Nle-Asp-Phe-NH2] (X1-W[NMeNle]DF-NH2), the EC50 in data set [1] was 642 nM; in the data set on guinea pig ileum it was over 1000 nM. The half-life in data set [2] was over 4.17 h.

On to `CCCC[C@@H](NC(=O)CC(=O)N[C@@H](Cc1c[nH]c2ccccc12)C(=O)N(C)[C@@H](CCCC)C(=O)N[C@@H](CC(=O)O)C(=O)N[C@@H](Cc1ccccc1)C(N)=O)NC(=O)[C@H](Cc1ccc(OS(=O)(=O)O)cc1)NC(=O)OC(C)(C)C` [Example 15, Boc-Tyr(SO3 Na)-gNle-mGly-Trp-(N-Me)Nle-Asp(Na)-Phe-NH2], for which the EC50 was found to be 0.35 nM in data set [1] and 1 nM in the data set with guinea pig ileum. Moreover, in data set [2], the half-life is over 3 h.

`CCCC[C@H](NC(=O)[C@H](Cc1ccc(CS(=O)(=O)O)cc1)NC(C)=O)C(=O)NCC(=O)N[C@@H](Cc1c[nH]c2ccccc12)C(=O)N[C@@H](CCCC)C(=O)N[C@@H](CC(=O)O)C(=O)N[C@@H](Cc1ccccc1)C(N)=O` [Example 13, Ac-L-Phe(p-CH2 SO3 Na)-NLe-Gly-Trp-NLe-Asp-PheNH2] (Ac-[Phe(4-CH2SO3H)][Nle]GW[Nle]DF-NH2): the EC50 in data set [1] was 0.33 nM; in the data set on guinea pig ileum, 3.8 nM.

For `CCCC[C@H](NC(=O)[C@H](Cc1ccc(OS(=O)(=O)O)cc1)NC(=O)OC(C)(C)C)C(=O)NCC(=O)N[C@@H](Cc1c[nH]c2ccccc12)C(=O)N(C)[C@@H](CCCC)C(=O)N[C@@H](CC(=O)O)C(=O)N[C@@H](Cc1ccccc1)C(N)=O` [Example 16, Boc-Tyr(SO3 Na)-Nle-Gly-Trp-(N-Me)Nle-Asp(Na)-Phe-NH2] (Boc-[sY][Nle]GW[NMeNle]DF-NH2), the EC50 in data set [1] was 377 nM; with guinea pig ileum, over 1000 nM. For the same compound, in data set [2], the half-life is over 4.17 h.

As for `CSCC[C@H](NC(=O)[C@H](Cc1ccc(OS(=O)(=O)O)cc1)NC(=O)[C@@H](N)CC(=O)O)C(=O)NCC(=O)N[C@@H](Cc1c[nH]c2ccccc12)C(=O)N[C@@H](CCSC)C(=O)N[C@@H](CC(=O)O)C(=O)N[C@@H](Cc1ccccc1)C(N)=O` [CCK8, Asp-Tyr(SO3 H)-Met-Gly-Trp-Met-Asp-Phe-NH2, reference compound], in data set [2], the half-life came to 0.75 h.
